One data set deals with C. glabrata 5376. As to the kind of experiment: Planktonic antifungal susceptibility (modified CLSI, XTT end point). Format: cell-based, Candida glabrata. Particulars: 10^3 cells/mL, RPMI, 35 °C, 48 h, XTT (A490), <10% metabolic activity, at least two independent days, three replicates each. How it is done:
(§1) C. albicans strains SC5314 and ATCC 90028 were purchased from ATCC. C. albicans K1, C. glabrata 5376, C. parapsilosis 5986 and C. tropicalis 98-234 are clinical isolates from invasive candidiasis and were generously donated by the Andes group (University of Wisconsin-Madison). K1 is fluconazole resistant. All strains were stored as a 50% glycerol stock at −80 °C and grown in a liquid YPD media. For planktonic susceptibility testing, cells were grown on agar plates at 30 °C for 24 h and 2–3 colonies were used for the cell inoculum. For spheroplast formation and biofilm susceptibility testing assays, cells were grown overnight in YPD at 30 °C. RPMI (with L-glutamine and phenol red buffered with 3-(N-morpholino) propanesulfonic acid and adjusted to pH 7.0) was the media used for all susceptibility tests. XTT solution for assessing metabolic activity was prepared at 0.5 g/L in PBS with 3 μM menadione in acetone and pH adjusted to 7.4.
(§2) The antifungal activities of the β-peptides against C. albicans, C. glabrata, C. parapsilosis, C. tropicalis cells were assayed in accordance to the guidelines for planktonic susceptibility testing provided by the Clinical and Laboratory Standards Institute, but with a modification to include a quantitative XTT cell metabolic activity end-point. […] After 48 h, the MICs were recorded visually as the first well that […] and by using an XTT metabolic assay. […]
(Formazan colour is commonly taken as a measure of viable cells.)

The next data set concerns C. parapsilosis 5986. The data set is described as above. Format: cell-based, Candida parapsilosis. Particulars: 10^3 cells/mL, RPMI, 35 °C, 48 h, XTT (A490), <10% metabolic activity, at least two independent days, three replicates each. How it is done: as §1, §2
Data set [1] concerns human red blood cells (hRBCs). The data set can be described thus: Hemolysis of human red blood cells. Format: cell-based. Particulars: hRBCs, 2-fold dilutions in tris-buffered saline, an hour at 37 °C, absorbance 405 nm, relative to positive lysis control; average ± standard deviation of three independent experiments of duplicates each. How it is done: Table S1. Hemolysis of β-peptide 1-16, concentration of β-peptid e needed for 50% lysis of human red blood cells (hRBCs)
Peptide # Peptide Concentration at 50% Hemolysis a (HC50, µg/mL) […]
a Hemolysis assays were perfor med as previously indicated in Lee, M.R. et al., ACS Chem. Biol. (2014). Briefly, equal volumes of 2-fold dilutions of β-peptides in tris-buffered saline (TBS) were incubated with hRBCs for an hour at 37 °C. Supernatants were transferred to a new plate and absorbance was measured at 405 nm.
% hemolysis was calculated relative to positive lysis control and the concentration of peptide needed for 50% hemolysis was recorded as HC50 for that peptide. Values reported are average measurements from three independent experiments of duplicates each and the error denoted is the standard deviation. Concentration dependent hemolysis graphs can be found in Lee, M.R. et al., ACS Chem. Biol. (2014).

Data set [2] is described as follows: RP-HPLC retention time as measure of β-peptide hydrophobicity. In kind it is physicochemical. The conditions noted are these: chromatographic, analytical RP-HPLC, C18 (Waters X-bridge, 4.6 mm × 250 mm), gradient 20%–80% CH3CN in water with 0.1% TFA over 5–35 min, 1 mL/minute, 0.5 to 1 mg/mL, 50 µL injected; mean ± standard deviation of triplicate measurements. An excerpt:
β-peptides were produced by microwave-assisted Fmoc synthesis at 20−40 μmol scales and purified by RP-HPLC using a C18 column. MALDI mass spectrometry was used to validate the mass of each peptide as described previously. Retention times determined by C18 RP-HPLC were used as a measure of the relative hydrophobicity of the β-peptides (Table 1). This approach has been used previously by our group and others to assess the relative hydrophobicity of different peptide structures. Preliminary antifungal activity and mammalian toxicity evaluation were reported previously for β-peptides 1–16 as planktonic MIC against C. albicans and percent hemolysis at the MIC, respectively.
Hydrophobicity of 14-helical β-peptides was characterized by measuring retention times with an analytical RP-HPLC using a C18 column (Waters, X-bridge, column dimensions 4.6 mm × 250 mm, Milford, MA, USA). The β-peptide solutions (0.5 to 1 mg/mL, 50 µL) were injected into the HPLC at a flow rate of 1 mL/minute. Retention time was characterized in triplicate with a gradient of 20%–80% CH3CN in water containing 0.1% TFA over 5–35 min.

The next data set deals with C. tropicalis 98-234. The data set can be described thus: Planktonic antifungal susceptibility (modified CLSI, XTT end point). Format: cell-based, Candida tropicalis. Particulars: 10^3 cells/mL, RPMI, 35 °C, 48 h, XTT (A490), <10% metabolic activity, at least two independent days, three replicates each. How it is done:
as §1, §2

≈ marks a conversion by molar mass, not a printed value.

Regarding `CC(C)[C@@H](CC(=O)N[C@@H](CCCCN)CC(N)=O)NC(=O)[C@H]1CCCC[C@@H]1NC(=O)C[C@H](CCCCN)NC(=O)C[C@@H](NC(=O)[C@H]1CCCC[C@@H]1NC(=O)C[C@H](CCCCN)NC(=O)C[C@@H](NC(=O)[C@H]1CCCC[C@@H]1N)C(C)C)C(C)C` [Peptide 4], in the data set on C. glabrata 5376, the “MIC, C. glabrata” value turned out to be 32 µg/mL (≈ 27.6 µM). Moreover, the “MIC, C. parapsilosis” value with C. parapsilosis 5986 was determined as 16 µg/mL (≈ 13.8 µM). Further, in data set [1], the “Peptide Concentration at 50% Hemolysis (HC50)” value worked out at 161 ± 40 µg/mL. For the same compound, in data set [2], the “Hydrophobicity (HPLC Retention Time, min)” value stood at 24.5 ± 0.2 min. The “MIC, C. tropicalis” value in the data set with C. tropicalis 98-234 is listed as 4 µg/mL (≈ 3.45 µM).

Values taken from PMC4588179, “Antifungal Activity of 14-Helical β-Peptides against Planktonic Cells and Biofilms of Candida Species” (Pharmaceuticals, 2015).
